Reference: patent US20220324796A1, “ANTIBIOTIC COMPOUNDS” (The General Hospital Corporation, priority 2019, published 2022)

Assays:
[1] = system: HKC-8 human renal proximal cells; assay: Mammalian membrane permeability assay (SYTOX Green); type: cell-based; conditions: up to 64 μg/mL
Method: Mammalian membrane permeability assay. Human renal proximal tubular epithelial cells (HKC-8) were grown in Dulbecco' s modified Eagle F-12 media mixed 1:1 with Ham's F-12 (DMEM/F-12, Life Technologies, Carlsbad, Calif., USA) supplemented with 10% FBS and 4 mM L-glutamine at 37° C. in 5% CO2. For membrane permeability assays, HKC-8 was cultured in black, clear-bottom, 96-well plates (Corning no. 3904) in 100 μl/well of the growth media to reach ˜70% confluence. After washing the cells twice with PBS, 50 μl of 0.25 μM SYTOX Green was added to each well. After incubating the cells at 37° C. in 5% CO2 for 15 min, the cells were treated with a range of concentrations of bithionol or the cholesterol binding detergent saponin (positive control). Fluorescence was measured at room temperature using a spectrophotometer (SpectraMax M2, Molecular Devices) with excitation and emission wavelengths of 485 nm and 525 nm, respectively. The assay was carried out in biological duplicate.
To visualize HKC-8 cells with compromised membranes, HKC-8 was cultured in 24-well plates (Corning no. 3527) until —70% confluence. After washing the cells twice with PBS, 500 μl of 1 μM SYTOX Green was added to each well. The cells were incubated at 37° C. in 5% CO2 for 15 min and then treated with 32 μg/mL (final concentration) bithionol or saponin for 1 h. […]

S. aureus MW2 = assay: Transmission electron microscopy; type: cell-based; conditions: 10× MIC, 2 h
Method: Transmission electron microscopy. S. aureus MW2 was grown to exponential phase (OD600=˜0.4) at 37° C. Bacterial cultures were then treated with 10× MIC of bithionol or 0.1% DMSO (control) at 37° C. for 2 h. 1 mL of the treated bacterial samples were fixed with the same volume of a 2× fixative, a mixture of 5% glutaraldehyde, 2.5% paraformaldehyde and 0.06% picric acid in 0.2 M sodium cacodylate buffer (pH 7.4). Fixed cells were washed in 0.1 M cacodylate buffer and post-fixed with 1% Osmium tetroxide (OsO4)/1.5% Potassium ferrocyanide (KFeCN6) for 1 h. The fixed cells were washed twice in water, once in maleate buffer, and incubated in the maleate buffer containing 1% uranyl acetate for lh. Cells were then washed twice in water and subsequently dehydrated in an alcohol gradient series (10 min each; 50%, 70%, 90%, 2×10 min 100%). The cells were then incubated in propyleneoxide for 1 h, infiltrated overnight in a 1:1 mixture of propyleneoxide and Spurr's low viscosity resin (Electron Microscopy sciences, Hatfield, Pa.) and polymerized at 60° C. for 48 h. Ultrathin sections (about 60 nm) were cut on a Reichert Ultracut-S microtome (Leica Microsystem, Wetzlar, Germany), picked up onto copper grids, and stained with lead citrate. Micrographs of the cells were taken using a JEOL 1200EX transmission electron microscope (Harvard Medical School EM facility).

[2] = system: exponential-phase S. aureus MW2; assay: Killing kinetics assay; type: cell-based
Method: Killing kinetics assay. An overnight culture of S. aureus MW2 ^−was diluted in 25 mL TSB to a concentration of ˜10^5 CFU/mL. The diluted culture was grown to exponential-phase (˜2×10^7 CFU/mL) at 37° C. with shaking at 200 rpm. 1 mL of the exponential-phase culture was added to each well of a 96-well assay block (Corning Costar 3960) containing 1 mL of 2× of the desired concentrations of antibiotics dissolved in pre-warmed TSB at 37° C. The assay block was then incubated at 37° C. with shaking at 200 rpm. At every hour, 400 μl cultures were removed, washed once with PBS, serially diluted and spot-plated onto tryptic soy agar (TSA, BD) plates. The plates were incubated at 37° C. overnight, and colonies were counted to determine the titer of the cultures. These experiments were conducted in biological triplicate.

[3] = Hepatic and renal toxicity (ALT, BUN) in infected mice; type: in vivo, mouse; conditions: 30 mg/kg i.p., every 12 h for 3 days
Method: Deep-seated mouse thigh infection model. In vivo efficacy of bithionol alone or in combination with gentamicin against MRSA strain MW2 persisters was evaluated using a previously described neutropenic mouse thigh infection model with modifications. Six-week-old female CD-1 mice (20-25 g, Charles River Laboratories, Wilmington, Mass., USA) were rendered neutropenic by administering 150 mg/kg and 100 mg/kg of cyclophosphamide intraperitoneally (i.p.) at 4 days and 1 day before infection, respectively. On the day of infection, overnight culture of S. aureus MW2 were washed 3 times with sterile saline and diluted to ˜10^4 CFU/mL in saline. 50 μl of the diluted culture was injected to the right thigh of each mouse. Bithionol was dissolved in Kolliphor EL (Sigma-Aldrich, St Louis, Mo., USA)/ethanol 1:1 and then diluted 1:10 in saline to a final concentration of 30 mg/kg. […] The levels of alanine aminotransferase and blood urea nitrogen were analyzed with commercially available kits, following the manufacturer's protocol (Pointe Scientific, Canton, Mich., USA) to evaluate hepatic and renal toxicities. […] Statistical significance among each group in animal studies was analyzed by one-way ANOVA with post-hoc Tukey test using GraphPad Prism 7 (GraphPad Software, La Jolla, Calif., USA).

Oc1c(Cl)cc(Cl)cc1Sc1cc(Cl)cc(Cl)c1O [bithionol, 6,6′-thio-bis-(2,4-dichlorophenol)]
SYTOX Green membrane permeabilization of HKC-8 cells [1]: did not induce SYTOX Green membrane permeabilization | TEM findings (S. aureus MW2): disrupts MRSA membranes | time to eradicate ~10^7 CFU/mL exponential-phase S. aureus MW2 ([2]; 10 μg/mL (10× MIC)): ≤ 3 h | rate of killing ([2]; 10× MIC, compared with daptomycin and vancomycin): comparable to daptomycin (at 10× MIC) but significantly faster than the killing kinetics of vancomycin | hepatic or renal toxicity (ALT and BUN) [3]: no signs of hepatic or renal toxicity
